# Test results as given in patent US7834179B2, “Spiroindolinone derivatives” (Hoffmann-La Roche Inc., priority 2007, dated 2010).
# Target: interaction between p53 and MDM2 proteins (Homo sapiens, UniProt Q00987)
# Test: HTRF assay of inhibition of p53-MDM2 interaction (GST-MDM2 / biotinylated p53 peptide)
# Assay type: binding
# Settings: recombinant GST-tagged MDM2 and biotinylated p53 peptide, 37° C. for 1 h
# Description: The ability of the compounds to inhibit the interaction between p53 and MDM2 proteins was measured by an HTRF (homogeneous time-resolved fluorescence) assay in which recombinant GST-tagged MDM2 binds to a peptide that resembles the MDM2-interacting region of p53 (Lane et al.). Binding of GST-MDM2 protein and p53-peptide (biotinylated on its N-terminal end) is registered by the FRET (fluorescence resonance energy transfer) between Europium (Eu)-labeled anti-GST antibody and streptavidin-conjugated Allophycocyanin (APC).
# Test is performed in black flat-bottom 384-well plates (Costar) in a total volume of 40 uL containing: 90 nM biotinylate peptide, 160 ng/ml GST-MDM2, 20 nM streptavidin-APC (PerkinElmerWallac), […] Eu-labeled anti-GST-antibody (PerkinElmerWallac), 0.2% bovine serum albumin (BSA), 1 mM dithiothreitol (DTT) and 20 mM Tris-borate seine (TBS) buffer as follows: Add 10 uL of GST-MDM2 (640 ng/ml working solution) in reaction buffer to each well. Add 10 uL diluted compounds (1:5 dilution in reaction buffer) to each well, mix by shaking. Add 20 uL biotinylated p53 peptide (180 nM working solution) in reaction buffer to
# each well and mix on shaker. Incubate at 37° C. for 1 h. Add 20 uL streptavidin-APC and Eu-anti-GST antibody mixture (6 nM Eu-anti-GST and 60 nM streptavidin-APC working solutions), in TBS buffer with 0.2% BSA, shake at room temperature for 30 minutes and read using a TRF-capable plate reader at 665 and 615 nm (Victor 5, Perkin ElmerWallac). If not specified, the reagents were purchased from Sigma, Chemical Co.
# Sequence of interaction between p53 and MDM2 proteins (Q00987 whole entry): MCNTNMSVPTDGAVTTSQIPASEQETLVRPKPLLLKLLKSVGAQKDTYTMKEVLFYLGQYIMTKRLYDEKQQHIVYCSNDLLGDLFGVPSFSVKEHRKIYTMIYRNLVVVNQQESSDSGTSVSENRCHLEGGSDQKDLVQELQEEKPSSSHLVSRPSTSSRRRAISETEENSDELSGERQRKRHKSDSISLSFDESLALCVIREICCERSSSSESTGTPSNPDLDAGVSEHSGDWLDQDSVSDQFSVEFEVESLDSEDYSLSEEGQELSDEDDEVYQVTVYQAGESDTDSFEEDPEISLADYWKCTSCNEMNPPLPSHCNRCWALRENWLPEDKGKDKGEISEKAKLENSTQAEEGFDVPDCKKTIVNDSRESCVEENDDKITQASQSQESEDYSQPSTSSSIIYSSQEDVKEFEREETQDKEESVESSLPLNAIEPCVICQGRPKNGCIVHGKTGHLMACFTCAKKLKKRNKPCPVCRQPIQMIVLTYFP
row,IC50 [nM],SMILES
1,191,"Cc1ccc(F)cc1[C@H]1N2CC(=O)N(C)N=C2C[C@@H](c2cccc(Cl)c2)[C@]12C(=O)Nc1cc(Cl)ccc12 (racemic) [Example 1i, (6′R, 3R, 8′S)-6-chloro-8′-(3-chlorophenyl)-6′-(5-fluoro-2-methylphenyl)-2′-methyl-6′,7′,8′,9′-tetrahydro spiro[3H-indole-3,7′-(2H-pyrido[2,1-c][1,2,4]triazine)]-2,3′(1H)-dione]"
2,100,"C=C(CC)[C@H]1N2CC(=O)N(CCCN(C)C)N=C2C[C@@H](c2cccc(Cl)c2)[C@]12C(=O)Nc1cc(Cl)ccc12 (racemic) [Example 5b, (6′R, 3R, 8′S)-6-chloro-8′-(3-chlorophenyl)-2′-(3-dimethylaminopropyl)-6′-(1-methylene-propyl)-6′,7′,8′,9′-tetrahydro spiro[3H-indole-3,7′-(2H-pyrido[2,1-c][1,2,4]triazine)]-2,3′(1H)-dione]"
3,272,"C=CCOc1ccc(I)cc1[C@H]1N2CC(=O)N(C)N=C2C[C@@H](c2cccc(Cl)c2)[C@]12C(=O)Nc1cc(Cl)ccc12 (racemic) [Example 18g, (6′R, 3R, 8′S)-6′-(2-allyloxy-5-iodo-phenyl)-6-chloro-8′-(3-chlorophenyl)-2′-methyl-6′,7′,8′,9′-tetrahydro spiro[3H-indole-3,7′-(2H-pyrido[2,1-c][1,2,4]triazine)]-2,3′(1H)-dione]"
4,293,"C=C(CC)[C@H]1N2CC(=O)N(CC(=O)NCCO)N=C2C[C@@H](c2cccc(Cl)c2)[C@]12C(=O)Nc1cc(Cl)ccc12 [Example 11c, (6′R, 3R, 8′S)-6-chloro-8′-(3-chlorophenyl)-2′-[(2-hydroxyethylamino)carbonyl-methyl]-6′-(1-methylene-propyl)-6′,7′,8′,9-tetrahydro spiro[3H-indole-3,7′-(2H-pyrido[2,1-c][1,2,4]triazine)]-2,3′(1H)-dione]"

row,SMILES,IC50 [nM]
1,"C=C(CC)[C@H]1N2CC(=O)N(CCOC(C)=O)N=C2C[C@@H](c2cccc(Cl)c2)[C@]12C(=O)Nc1cc(Cl)ccc12 (racemic) [Example 7b, (6′R, 3R, 8′S)-2′-(2-acetoxyethyl)-6-chloro-8′-(3-chlorophenyl)-6′-(1-methylene-propyl)-6′,7′,8′,9′-tetrahydro spiro[3H-indole-3,7′-(2H-pyrido[2,1-c][1,2,4]triazine)]-2,3′(1H)-dione]",890
